Assay results taken from US11878966B2, “Substituted 4-benzyl and 4-benzoyl piperidine derivates” (89BIO LTD, priority 2015, dated 2024).

Molecular target: T1, recombinant human baculovirus-expressed GST-tagged FASN (Homo sapiens, UniProt P49327)
T1 construct: GST; host or cells: baculovirus expression system (insect cells implied)
Assay: FASN enzyme activity assay: fluorescence-based detection of CoA with CPM
Format: biochemical
Details: 5 nM FASN, 150 μM NADPH, 10 μM acetyl-CoA, 25 μM malonyl-CoA, 90 minutes incubation
In short: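 GST-tagged human FASN (5 nM, baculovirus-expressed) in 50 mM HEPES pH 7.5 with 150 μM NADPH, 10 μM acetyl-CoA and 25 μM malonyl-CoA, 0.5% DMSO, started with malonyl-CoA and run 90 min. CoA was detected with CPM (30 min; ex 390/em 530 nm). IC50 came from sigmoidal variable-slope fits of % inhibition.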

T1 sequence (P49327 whole entry): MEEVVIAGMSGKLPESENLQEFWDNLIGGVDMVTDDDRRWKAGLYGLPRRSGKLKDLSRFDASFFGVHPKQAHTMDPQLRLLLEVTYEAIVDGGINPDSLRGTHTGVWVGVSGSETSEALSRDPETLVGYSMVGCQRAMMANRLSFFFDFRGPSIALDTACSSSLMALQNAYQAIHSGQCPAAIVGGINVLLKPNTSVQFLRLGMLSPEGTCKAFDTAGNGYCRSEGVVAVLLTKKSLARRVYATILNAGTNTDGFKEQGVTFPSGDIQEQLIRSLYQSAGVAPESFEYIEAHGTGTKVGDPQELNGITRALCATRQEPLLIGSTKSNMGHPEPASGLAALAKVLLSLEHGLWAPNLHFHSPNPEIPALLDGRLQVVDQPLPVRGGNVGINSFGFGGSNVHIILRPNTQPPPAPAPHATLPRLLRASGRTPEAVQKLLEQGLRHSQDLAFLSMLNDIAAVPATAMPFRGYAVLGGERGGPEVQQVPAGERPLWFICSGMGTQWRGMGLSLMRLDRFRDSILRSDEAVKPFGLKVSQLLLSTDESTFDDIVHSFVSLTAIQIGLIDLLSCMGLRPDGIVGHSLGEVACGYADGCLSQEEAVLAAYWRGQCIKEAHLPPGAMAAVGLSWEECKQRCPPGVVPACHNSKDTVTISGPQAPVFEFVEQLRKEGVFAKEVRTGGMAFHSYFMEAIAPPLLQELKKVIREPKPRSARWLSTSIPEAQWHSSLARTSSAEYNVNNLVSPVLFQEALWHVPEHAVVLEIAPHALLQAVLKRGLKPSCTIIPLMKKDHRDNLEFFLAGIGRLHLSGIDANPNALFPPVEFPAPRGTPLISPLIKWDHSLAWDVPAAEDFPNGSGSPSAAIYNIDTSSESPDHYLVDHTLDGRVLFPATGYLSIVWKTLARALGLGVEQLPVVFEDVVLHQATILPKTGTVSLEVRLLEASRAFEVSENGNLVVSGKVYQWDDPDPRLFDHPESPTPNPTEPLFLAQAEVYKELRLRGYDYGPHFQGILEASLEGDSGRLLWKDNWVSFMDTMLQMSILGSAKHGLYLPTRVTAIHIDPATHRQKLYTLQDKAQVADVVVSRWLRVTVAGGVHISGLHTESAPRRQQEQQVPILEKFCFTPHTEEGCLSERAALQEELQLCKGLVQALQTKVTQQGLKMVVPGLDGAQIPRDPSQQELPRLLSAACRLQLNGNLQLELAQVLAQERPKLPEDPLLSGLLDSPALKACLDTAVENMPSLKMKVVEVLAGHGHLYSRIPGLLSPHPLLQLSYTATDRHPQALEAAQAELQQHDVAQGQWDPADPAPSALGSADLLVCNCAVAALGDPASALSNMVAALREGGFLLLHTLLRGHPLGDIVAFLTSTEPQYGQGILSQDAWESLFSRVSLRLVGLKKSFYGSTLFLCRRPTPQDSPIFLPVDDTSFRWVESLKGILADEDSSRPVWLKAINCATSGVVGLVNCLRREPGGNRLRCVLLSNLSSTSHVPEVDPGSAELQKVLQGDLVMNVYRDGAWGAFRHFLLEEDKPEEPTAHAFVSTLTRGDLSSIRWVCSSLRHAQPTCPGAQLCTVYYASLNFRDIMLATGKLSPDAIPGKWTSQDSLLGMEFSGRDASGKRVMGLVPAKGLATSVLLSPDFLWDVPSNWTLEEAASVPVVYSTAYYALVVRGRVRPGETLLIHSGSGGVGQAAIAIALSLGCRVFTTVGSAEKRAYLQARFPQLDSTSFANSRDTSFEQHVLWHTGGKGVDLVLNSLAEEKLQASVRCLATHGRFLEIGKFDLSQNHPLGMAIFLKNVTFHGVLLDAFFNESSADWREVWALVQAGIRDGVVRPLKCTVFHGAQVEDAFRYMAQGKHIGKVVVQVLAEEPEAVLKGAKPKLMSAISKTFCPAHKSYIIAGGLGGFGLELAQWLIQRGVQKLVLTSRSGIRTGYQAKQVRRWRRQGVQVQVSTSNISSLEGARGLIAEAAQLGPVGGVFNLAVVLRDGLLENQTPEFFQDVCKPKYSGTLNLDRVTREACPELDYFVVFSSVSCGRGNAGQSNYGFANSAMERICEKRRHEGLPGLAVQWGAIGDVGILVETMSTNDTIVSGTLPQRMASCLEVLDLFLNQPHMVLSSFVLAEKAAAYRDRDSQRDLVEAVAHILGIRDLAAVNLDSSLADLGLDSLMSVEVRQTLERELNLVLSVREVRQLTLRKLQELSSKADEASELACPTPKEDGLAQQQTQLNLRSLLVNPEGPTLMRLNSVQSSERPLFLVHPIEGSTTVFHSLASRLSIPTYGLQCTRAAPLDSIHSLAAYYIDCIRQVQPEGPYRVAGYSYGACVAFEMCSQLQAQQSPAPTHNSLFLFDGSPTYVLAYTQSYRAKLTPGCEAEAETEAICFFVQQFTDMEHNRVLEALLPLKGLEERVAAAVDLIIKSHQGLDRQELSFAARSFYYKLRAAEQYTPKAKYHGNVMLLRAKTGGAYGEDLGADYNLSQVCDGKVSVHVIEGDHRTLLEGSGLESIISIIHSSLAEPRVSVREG

Row | IC50 | Structure (SMILES)
1 | 1 to 99 nM | Cc1c(-c2ccc(CC3(F)CCN(C(=O)C4CC4)CC3)cc2)ccc2cccnc12 [Example 183, Cyclopropyl(4-fluoro-4-(4-(8-methylquinolin-7-yl)benzyl)piperidin-1-yl)methanone]
2 | 1000 to 10000 nM | CCC(=O)N1CCC(C2(c3ccc(-c4ccc(CN(C)C)cc4)cc3)OCCO2)CC1 [Example 136, 1-{4-[2-(4′-Dimethylaminomethyl-biphenyl-4-yl)-1,3-dioxolan-2-yl]-piperidin-1-yl}-propan-1-one]
3 | 1000 to 10000 nM | CN(C)C(=O)N1CCC(C2(c3ccc(-c4ccc5ncccc5c4)cc3)OCCO2)CC1 [Example 103, 4-[2-(4-Quinolin-6-yl-phenyl)-1,3-dioxolan-2-yl]-piperidine-1-carboxylic acid dimethylamide]
4 | 1000 to 10000 nM | O=C(N1CCC(O)(Cc2ccc(-c3cc4ccccc4cn3)cc2)CC1)N1CCCO1 [Example 145, (4-hydroxy-4-(4-(isoquinolin-3-yl)benzyl)piperidin-1-yl)(isoxazolidin-2-yl)methanone]
5 | 1 to 99 nM | O=C(C1CCCO1)N1CCC(F)(Cc2ccc(-c3cnc4ccccc4c3)cc2)CC1 (stereo in doubt) [Example 189, (R)-(4-fluoro-4-(4-(quinolin-3-yl)benzyl)piperidin-1-yl)(tetrahydrofuran-2-yl)methanone]
6 | 1 to 99 nM | CCC(=O)N1CC=C(Cc2ccc(-c3ccc4cccnc4c3C)cc2)CC1 [Example 186, 1-(4-(4-(8-methylquinolin-7-yl)benzyl)-3,6-dihydropyridin-1(2H)-yl)propan-1-one]
7 | 100 to 999 nM | O=C(C1CC1)N1CC=C(Cc2ccc(-c3cncc4ccccc34)cc2)CC1 [Example 178, Cyclopropyl(4-(4-(isoquinolin-4-yl)benzyl)-5,6-dihydropyridin-1(2H)-yl)methanone]
8 | 1 to 99 nM | CCC(=O)N1CCC(C(O)c2ccc(-c3ccc4cccnc4c3)cc2)CC1 (centres unmarked) [Example 125, 1-{4-[Hydroxy-(4-quinolin-7-yl-phenyl)-methyl]-piperidin-1-yl}-propan-1-one]
9 | 100 to 999 nM | CCC(=O)N1CC=C(Cc2ccc(-c3cnc4ccccc4c3Cl)cc2)CC1 [Example 194, 1-(4-(4-(4-Chloroquinolin-3-yl)benzyl)-3,6-dihydropyridin-1(2H)-yl)propan-1-one]
10 | 100 to 999 nM | CCC(=O)N1CCC(F)(Cc2ccc(-c3ccc4occc4c3)cc2)CC1 [Example 169, 1-(4-(4-(benzofuran-5-yl)benzyl)-4-fluoropiperidin-1-yl)propan-1-one]
11 | 1 to 99 nM | O=C(C1CC1)N1CCC(F)(Cc2ccc(-c3ccc4cnccc4c3)cc2)CC1 [Example 175, Cyclopropyl(4-fluoro-4-(4-(isoquinolin-6-yl)benzyl)piperidin-1-yl)methanone]
12 | 1 to 99 nM | CONC(=O)N1CCC(Cc2ccc(-c3ccc4cccnc4c3C)cc2)CC1 [Example 231, N-methoxy-4-[[4-(8-methyl-7-quinolyl)phenyl]methyl]piperidine-1-carboxamide]
13 | 1000 to 10000 nM | CCC(OC)(c1ccc(-c2cnc3ccccc3c2)cc1)C1CCN(C(=O)C2CC2)CC1 (centres unmarked) [Example 211, Cyclopropyl-{4-[1-methoxy-1-(4-quinolin-3-yl-phenyl)-propyl]-piperidin-1-yl}-methanone]
14 | 100 to 999 nM | O=C([C@H]1CCCO1)N1CCC(O)(Cc2ccc(-c3cc4ccccc4cn3)cc2)CC1 [Example 146, [4-Hydroxy-4-(4-isoquinolin-3-yl-benzyl)-piperidin-1-yl]-(R)-tetrahydro-furan-2-yl-methanone]
15 | 1 to 99 nM | CCC(=O)N1CCC(C(O)c2ccc(-c3ccc4cnccc4c3)cc2)CC1 (centres unmarked) [Example 130, 1-{4-[Hydroxy-(4-isoquinolin-6-yl-phenyl)-methyl]-piperidin-1-yl}-propan-1-one]
16 | 1000 to 10000 nM | CCC(=O)N1CCC(C(CC)(OC)c2ccc(-c3cnc4ccccc4c3)cc2)CC1 (centres unmarked) [Example 210, 1-{4-[1-Methoxy-1-(4-quinolin-3-yl-phenyl)-propyl]-piperidin-1-yl}-propan-1-one]

Further lines, the compound ahead of its results:

Row | Structure (SMILES) | IC50
17 | CCC(=O)N1CCC(C(C)c2ccc(-c3cnc4ccccc4c3Cl)cc2)CC1 (centres unmarked) [Example 75, 1-(4-{1-[4-(4-Chloroquinolin-3-yl)-phenyl]-ethyl}-piperidin-1-yl)-propan-1-one] | 1 to 99 nM
18 | COc1c(-c2ccc(CC3CCN(C(=O)C4CC4)CC3)cc2)ccc2cccnc12 [Example 33, Cyclopropyl-{4-[4-(8-methoxyquinolin-7-yl)-benzyl]-piperidin-1-yl}-methanone] | 1 to 99 nM
19 | Cc1c(-c2ccc(C(C)C3CCN(C(=O)[C@H]4CCCO4)CC3)cc2)cnc2ccccc12 (mixture of isomers) [Example 71, (4-{1-[4-(4-Methylquinolin-3-yl)-phenyl]-ethyl}-piperidin-1-yl)-(R)-tetrahydrofuran-2-yl-methanone] | 1 to 99 nM
20 | O=C(C1CC1)N1CCC(Cc2ccc(-c3cnc4ccccc4c3Cl)cc2)CC1 [Example 20, {4-[4-(4-Chloroquinolin-3-yl)-benzyl]-piperidin-1-yl}-cyclopropylmethanone] | 1 to 99 nM
21 | O=C(c1ccc(-c2cnc3ccccc3c2)cc1)C1CCN(C(=O)[C@H]2CCCO2)CC1 [Example 49, [4-(4-Quinolin-3-yl-benzoyl)-piperidin-1-yl]-(R)-tetrahydrofuran-2-yl-methanone] | 1 to 99 nM
22 | CCC(=O)N1CCC(C(OCCCN2CCOCC2)c2ccc(-c3ccc4cccnc4c3C)cc2)CC1 (centres unmarked) [Example 85, 1-{4-[[4-(8-Methylquinolin-7-yl)-phenyl]-(3-morpholin-4-yl-propoxy)-methyl]-piperidin-1-yl}-propan-1-one] | 1 to 99 nM
23 | CCC(=O)N1CCC(C(NC=O)c2ccc(-c3cnc4ccccc4c3)cc2)CC1 (centres unmarked) [Example 55, N-[(1-Propionylpiperidin-4-yl)-(4-quinolin-3-yl-phenyl)-methyl]-formamide] | 1000 to 10000 nM
24 | COCCOC(c1ccc(-c2ccc3c(C)nccc3c2)cc1)C1CCN(C(=O)[C@H]2CCCO2)CC1 (mixture of isomers) [Example 82, (4-{(2-Methoxyethoxy)-[4-(1-methylisoquinolin-6-yl)-phenyl]-methyl}-piperidin-1-yl)-(R)-tetrahydrofuran-2-yl-methanone] | 1 to 99 nM
25 | Cc1c(-c2ccc(C(F)(F)C3CCN(C(=O)[C@H]4CCCO4)CC3)cc2)cnc2ccccc12 [Example 11, (4-{Difluoro-[4-(4-methylquinolin-3-yl)-phenyl]-methyl}-piperidin-1-yl)-(R)-tetrahydrofuran-2-yl-methanone] | 1 to 99 nM
26 | CCOC(=O)N1CCC(C2(c3ccc(-c4ccc5ncccc5c4)cc3)OCCO2)CC1 [Example 101, 4-[2-(4-Quinolin-6-yl-phenyl)-1,3-dioxolan-2-yl]-piperidine-1-carboxylic Acid Ethyl Ester] | 1000 to 10000 nM
27 | CCC(=O)N1CCC(Cc2ccc(-c3ccc4c(C)nccc4c3)cc2)CC1 [Example 35, 1-{4-[4-(1-methylisoquinolin-6-yl)-benzyl]-piperidin-1-yl}-propan-1-one] | 1 to 99 nM
28 | Cc1nccc2cc(-c3ccc(CC4CCN(C(=O)C5CC5)CC4)cc3)ccc12 [Example 36, Cyclopropyl-{4-[4-(1-methyl-isoquinolin-6-yl)-benzyl]-piperidin-1-yl}-methanone] | 1 to 99 nM
29 | O=C(C1CC1)N1CCC(Cc2ccc(-c3ccc4cccnc4c3Cl)cc2)CC1 [Example 30, {4-[4-(8-Chloroquinolin-7-yl)-benzyl]-piperidin-1-yl}-cyclopropylmethanone] | 1 to 99 nM
